Values quoted from earlier work in patent US8772346B2, “Pharmaceutical composition” (Torrent Pharmaceuticals Limited, priority 2005, dated 2014).
Where two headings read alike, the source gives them in different places.

Conditions: HP-β-CD (10% w/v)

increase of aqueous solubility of entacapone by complexation with HP-β-CD (pH 3.0): 12 fold
increase of aqueous solubility of entacapone by complexation with HP-β-CD (pH 5.0): 85 fold
SMILES: CCN(CC)C(=O)/C(C#N)=C/c1cc(O)c(O)c([N+](=O)[O-])c1 [entacapone]
